According to ChEMBL document CHEMBL1687931, “Involvement of heme oxygenase-1 induction via Nrf2/ARE activation in protection against H2O2-induced PC12 cell death by a metabolite of sesamin contained in sesame seeds” (2011):
Active and inactive are the calls of the source. The calls are words filed in the database; no cut-off is given here.

Legend:
[1] = biological target: T1, Nuclear factor erythroid 2-related factor 2 (Rattus norvegicus) (UniProt O54968); experiment: Induction of NRF2/ARE enhancer activity rat PC12 cells transfected with ARE-firefly luciferase reporter gene at 10 uM after 24 hrs by luciferase assay; type: functional, cell-based; conditions: PC-12
T1 sequence (whole entry): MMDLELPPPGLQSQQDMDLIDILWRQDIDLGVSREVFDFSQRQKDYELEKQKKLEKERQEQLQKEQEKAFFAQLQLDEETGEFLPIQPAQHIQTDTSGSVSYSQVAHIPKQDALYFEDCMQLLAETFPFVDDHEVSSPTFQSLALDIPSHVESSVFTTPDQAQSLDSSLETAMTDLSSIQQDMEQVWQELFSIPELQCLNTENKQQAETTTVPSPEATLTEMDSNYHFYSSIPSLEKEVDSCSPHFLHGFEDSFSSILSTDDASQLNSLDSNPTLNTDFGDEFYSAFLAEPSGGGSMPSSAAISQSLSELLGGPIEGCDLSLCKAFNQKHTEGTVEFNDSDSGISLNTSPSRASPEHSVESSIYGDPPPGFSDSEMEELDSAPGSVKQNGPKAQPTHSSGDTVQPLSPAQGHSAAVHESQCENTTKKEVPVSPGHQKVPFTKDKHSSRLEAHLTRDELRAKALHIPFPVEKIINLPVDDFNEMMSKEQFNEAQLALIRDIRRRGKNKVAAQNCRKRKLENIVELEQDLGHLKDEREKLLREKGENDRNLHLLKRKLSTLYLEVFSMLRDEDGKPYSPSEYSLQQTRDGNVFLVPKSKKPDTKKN

[2] = system: PC-12; experiment: Increase in intracellular ROS production in rat PC12 cells assessed as NRF2-mediated HO-1 induction at 10 uM after 24 hrs by Western blot analysis; type: functional, cell-based
[3] = biological target: T1, Nuclear factor erythroid 2-related factor 2 (Rattus norvegicus); experiment: Induction of nuclear translocation of Nrf2 in rat PC12 cells at 10 uM after 6 hrs by Western blot analysis; type: functional, cell-based; conditions: PC-12
[4] = biological target: Mitogen-activated protein kinase 1 (Rattus norvegicus) (UniProt P63086); experiment: Phosphorylation of ERK2 in rat PC12 cells at 10 uM after 30 mins by Western blot analysis; type: cell-based; conditions: PC-12
Mitogen-activated protein kinase 1 (Rattus norvegicus), sequence (P63086 whole entry): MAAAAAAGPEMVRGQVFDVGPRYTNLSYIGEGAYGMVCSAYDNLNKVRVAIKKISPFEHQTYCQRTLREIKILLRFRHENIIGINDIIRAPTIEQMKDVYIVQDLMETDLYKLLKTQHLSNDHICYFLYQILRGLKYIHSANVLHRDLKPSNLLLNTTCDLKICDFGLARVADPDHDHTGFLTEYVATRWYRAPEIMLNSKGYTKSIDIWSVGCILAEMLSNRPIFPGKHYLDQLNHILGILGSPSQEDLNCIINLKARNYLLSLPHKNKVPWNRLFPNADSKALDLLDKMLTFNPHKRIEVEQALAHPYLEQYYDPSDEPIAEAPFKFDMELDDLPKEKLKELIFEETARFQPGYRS

[5] = system: PC-12; experiment: Increase in intracellular ROS production in rat PC12 cells assessed as induction of p38 phosphorylation at 10 uM after 1 hr by Western blot analysis; type: functional, cell-based
[6] = system: PC-12; experiment: Neuroprotective activity against H2O2-induced oxidative stress in rat PC12 cells assessed as cell viability pretreated with 10 uM for 6 hrs measured before inducer addition; type: functional; conditions: read-out: Activity
[7] = system: PC-12; experiment: Increase in intracellular ROS production in rat PC12 cells assessed as induction of p38 phosphorylation at 10 uM after 1 hr pretreated with N-acetylcysteine for 1 hr before compound addition by Western blot analysis; type: functional, cell-based
[8] = biological target: T1, Nuclear factor erythroid 2-related factor 2 (Rattus norvegicus); experiment: Induction of nuclear translocation of Nrf2 in rat PC12 cells at 10 uM after 1 hr by Western blot analysis; type: functional, cell-based; conditions: PC-12
[9] = biological target: T1, Nuclear factor erythroid 2-related factor 2 (Rattus norvegicus); experiment: Activation of Nrf2/ARE in rat PC12 cells assessed as inhibition of H2O2-induced oxidative stress by measuring cell viability pretreated with 10 uM for 6 hrs in presence of HO-1 inhibitor Zn-protoporphyrin; type: functional, cell-based; conditions: PC-12
[10] = biological target: T1, Nuclear factor erythroid 2-related factor 2 (Rattus norvegicus); experiment: Effect on Nrf2 protein in rat PC12 cell cytoplasmic fraction at 10 uM up to 6 hrs by Western blot analysis; type: functional, cell-based; conditions: PC-12
[11] = system: PC-12; experiment: Increase in intracellular ROS production in rat PC12 cells at 10 uM after 6 hrs by CM-H2-DCFDA staining-based fluorescence assay; type: functional, cell-based
[12] = biological target: T1, Nuclear factor erythroid 2-related factor 2 (Rattus norvegicus); experiment: Activation of Nrf2/ARE in rat PC12 cells assessed as upregulation of HO-1 protein expression at 10 uM after 6 hrs by Western blot analysis; type: functional, cell-based; conditions: PC-12
[13] = biological target: T1, Nuclear factor erythroid 2-related factor 2 (Rattus norvegicus); experiment: Activation of Nrf2/ARE in rat PC12 cells assessed as upregulation of HO-1 protein expression at 1 to 10 uM after 12 hrs by Western blot analysis; type: functional, cell-based; conditions: PC-12
[14] = biological target: T1, Nuclear factor erythroid 2-related factor 2 (Rattus norvegicus); experiment: Activation of Nrf2/ARE in rat PC12 cells assessed as induction of GCSc protein expression at 10 uM by Western blot analysis; type: functional, cell-based; conditions: PC-12
[15] = system: PC-12; experiment: Increase in intracellular ROS production in rat PC12 cells at 10 uM up to 1 hr by CM-H2-DCFDA staining-based fluorescence assay; type: functional, cell-based
[16] = system: PC-12; experiment: Increase in intracellular ROS production in rat PC12 cells at 10 uM after 0.5 hr by CM-H2-DCFDA staining-based fluorescence assay; type: functional, cell-based
[17] = system: PC-12; experiment: Phosphorylation of p38 kinase in rat PC12 cells at 10 uM up to 120 mins by Western blot analysis; type: cell-based
[18] = system: PC-12; experiment: Neuroprotective activity against H2O2-induced oxidative stress in rat PC12 cells assessed as cell viability pretreated with 5 uM for 6 hrs measured before inducer addition; type: functional; conditions: read-out: Activity
[19] = system: PC-12; experiment: Neuroprotective activity against H2O2-induced oxidative stress in rat PC12 cells expressing dominant-negative Nrf2 mutant assessed as cell viability pretreated with 10 uM for 6 hrs; type: functional, cell-based
[20] = biological target: Mitogen-activated protein kinase 3 (Rattus norvegicus) (UniProt P21708); experiment: Phosphorylation of ERK1 in rat PC12 cells at 10 uM after 30 mins by Western blot analysis; type: cell-based; conditions: PC-12
Mitogen-activated protein kinase 3 (Rattus norvegicus), sequence (P21708 whole entry): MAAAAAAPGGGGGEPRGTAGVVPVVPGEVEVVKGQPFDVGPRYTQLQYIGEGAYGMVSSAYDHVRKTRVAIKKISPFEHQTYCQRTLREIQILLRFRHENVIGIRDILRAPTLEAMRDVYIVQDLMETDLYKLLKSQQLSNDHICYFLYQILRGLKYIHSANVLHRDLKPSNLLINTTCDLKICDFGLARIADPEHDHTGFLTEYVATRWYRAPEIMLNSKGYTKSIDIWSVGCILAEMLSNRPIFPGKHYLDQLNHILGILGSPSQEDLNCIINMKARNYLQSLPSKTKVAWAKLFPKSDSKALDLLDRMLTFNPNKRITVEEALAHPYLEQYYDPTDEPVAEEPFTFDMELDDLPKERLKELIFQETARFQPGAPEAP

[21] = biological target: T1, Nuclear factor erythroid 2-related factor 2 (Rattus norvegicus); experiment: Activation of Nrf2/ARE in rat PC12 cells assessed as upregulation of HO-1 protein expression at 10 uM after 12 hrs by Western blot analysis; type: functional, cell-based; conditions: PC-12
[22] = system: PC-12; experiment: Phosphorylation of JNK in rat PC12 cells at 10 uM up to 120 mins by Western blot analysis; type: cell-based
[23] = biological target: T1, Nuclear factor erythroid 2-related factor 2 (Rattus norvegicus); experiment: Activation of Nrf2/ARE in rat PC12 cells assessed as induction of NQO-1 protein expression by Western blot analysis; type: functional, cell-based; conditions: PC-12
[24] = biological target: T1, Nuclear factor erythroid 2-related factor 2 (Rattus norvegicus); experiment: Activation of Nrf2/ARE in rat PC12 cells assessed as effect on HO-1 protein level at 10 uM after 24 hrs by Western blot analysis; type: functional, cell-based; conditions: PC-12
[25] = biological target: T1, Nuclear factor erythroid 2-related factor 2 (Rattus norvegicus); experiment: Activation of Nrf2/ARE in rat PC12 cells assessed as upregulation of HO-1 mRNA expression at 10 uM after 6 hrs by RT-PCR; type: functional, cell-based; conditions: PC-12
[26] = system: PC-12; experiment: Neuroprotective activity against H2O2-induced oxidative stress in rat PC12 cells assessed as cell viability pretreated with 2 uM for 6 hrs measured before inducer addition; type: functional; conditions: read-out: Activity
[27] = system: PC-12; experiment: Increase in intracellular ROS production in rat PC12 cells assessed as NRF2-mediated HO-1 induction at 10 uM after 24 hrs pretreated with N-acetylcysteine for 1 hr before compound addition by Western blot analysis; type: functional, cell-based

**Q.** How did the Activity [1] turn out when `COc1cc(C2OC[C@@H]3C(c4ccc5c(c4)OCO5)OC[C@H]23)ccc1O` (mixture of isomers) was run?
**A.** The Activity was “inactive”.

**Q.** Which Activity [1] does the source give for `Oc1ccc([C@H]2OC[C@H]3[C@@H]2CO[C@@H]3c2ccc(O)c(O)c2)cc1O` here?
**A.** Its Activity is “Active”.

**Q.** For `Oc1ccc(C2OC[C@@H]3C(c4ccc5c(c4)OCO5)OC[C@H]23)cc1O` (some centres undefined), which fold change (FC) [1] is on record?
**A.** Its fold change (FC) is 2.

**Q.** With `Oc1ccc([C@H]2OC[C@H]3[C@@H]2CO[C@@H]3c2ccc3c(c2)OCO3)cc1O` as the compound, how does the Activity [2] read?
**A.** The Activity was “Active”.

**Q.** And the Activity [3]?
**A.** Its Activity is “Active”.

**Q.** What about the Activity [4] of the same compound?
**A.** Its Activity is “Active”.

**Q.** What about the Activity [5] of the same compound?
**A.** Its Activity is “Active”.

**Q.** And the viability at 10 µM [6]?
**A.** The viability at 10 µM was 82%.

**Q.** What about the Activity [7] of the same compound?
**A.** Its Activity is “inactive”.

**Q.** And the Activity [8]?
**A.** Its Activity is “Active”.

**Q.** And the Activity [9]?
**A.** Its Activity is “inactive”.

**Q.** And the Activity [10]?
**A.** The Activity was “inactive”.

**Q.** What about the Activity [11] of the same compound?
**A.** Its Activity is “inactive”.

**Q.** And the Activity [12]?
**A.** Its Activity is “Active”.

**Q.** And the Activity [13]?
**A.** The Activity was “Dose-dependent effect”.

**Q.** What about the Activity [14] of the same compound?
**A.** The Activity was “Active”.

**Q.** What about the Activity [15] of the same compound?
**A.** The Activity was “Active”.

**Q.** And the Activity [16]?
**A.** The Activity was “Active”.

**Q.** And the Activity [17]?
**A.** Its Activity is “Active”.

**Q.** What about the viability at 5 µM [18] of the same compound?
**A.** The viability at 5 µM was 67%.

**Q.** And the Activity [19]?
**A.** The Activity was “inactive”.

**Q.** What about the Activity [20] of the same compound?
**A.** The Activity was “Active”.

**Q.** And the Activity [21]?
**A.** The Activity was “Active”.

**Q.** And the fold change (FC) [1]?
**A.** Its fold change (FC) is 2.

**Q.** And the Activity [22]?
**A.** Its Activity is “Active”.

**Q.** What about the Activity [23] of the same compound?
**A.** The Activity was “Active”.

**Q.** And the Activity [24]?
**A.** Its Activity is “inactive”.

**Q.** What about the fold change (FC) [25] of the same compound?
**A.** Its fold change (FC) is 6.

**Q.** And the viability at 2 µM [26]?
**A.** Its viability at 2 µM is 52%.

**Q.** What about the Activity [27] of the same compound?
**A.** Its Activity is “inactive”.

**Q.** Which Activity [1] does the source give for `Oc1ccc([C@H]2OC[C@H]3[C@@H]2CO[C@H]3c2ccc(O)c(O)c2)cc1O` here?
**A.** Its Activity is “inactive”.

**Q.** `c1cc2c(cc1[C@H]1OC[C@H]3[C@@H]1CO[C@H]3c1ccc3c(c1)OCO3)OCO2` was tested. Which Activity [1] did it give?
**A.** The Activity was “inactive”.

**Q.** How did the Activity [1] turn out when `c1cc2c(cc1[C@H]1OC[C@H]3[C@@H]1CO[C@@H]3c1ccc3c(c1)OCO3)OCO2` was run?
**A.** The Activity was “inactive”.

**Q.** `COc1cc([C@H]2OC[C@H]3[C@@H]2CO[C@@H]3c2ccc3c(c2)OCO3)ccc1O` was tested. Which Activity [1] did it give?
**A.** Its Activity is “inactive”.
